Assay results published in ChEMBL document CHEMBL1158050, “Minor sesquiterpenes with new carbon skeletons from the brown alga Dictyopteris divaricata” (J Nat Prod, 2006).

Assays:
Type in all cases: functional, cell-based
[1] = tested on: MCF7; assay: Cytotoxicity against human MCF7 cells by MTT assay
[2] = tested on: A549; assay: Cytotoxicity against human A549 cells by MTT assay
[3] = tested on: Bel-7402; assay: Cytotoxicity against human Bel-7402 cells by MTT assay
[4] = tested on: HCT-8; assay: Cytotoxicity against human HCT8 cells by MTT assay
[5] = tested on: BGC-823; assay: Cytotoxicity against human BGC-823 cells by MTT assay

Measured: IC50

CC(=O)[C@@H]1C[C@]2(O)[C@@H]([C@H]1O)[C@H](C(C)C)CC[C@H]2C
> 10 µg/mL: all assays above

CC(=O)C1=C2[C@H](C(C)C)CC[C@@H](C)[C@@]2(O)CC1=O
> 10 µg/mL: all assays above

CC(=O)C1=C2[C@@H](C)CC[C@H](C(C)C)[C@@]2(O)CC1=O
> 10 µg/mL: all assays above

CC(=O)[C@H]1C[C@]2(O)[C@@H]([C@@H]1O)[C@H](C(C)C)CC[C@H]2C
> 10 µg/mL: all assays above

CC(=O)C1=C[C@@H]2[C@H](C(C)C)CC[C@@H](C)[C@]2(O)C1
> 10 µg/mL: all assays above

CC(C)[C@@H]1CC[C@@H](C)[C@@]2(O)C1=CC(=O)[C@@H]2C(C)O (stereo not given in full)
> 10 µg/mL: all assays above
